Reference: patent US20210292807A1, “METHOD FOR TESTING ANTIMICROBIAL SUSCEPTIBILITY” (priority 2017, published 2021)
Values joined by “and” are separate entries in the source; they are usually repeats but may differ in a detail not shown here. Equal entries are not always repeated. Where two headings read alike, the source gives them in different places.

Tested on: Klebsiella isolates
Test: Acoustic flow cytometry-assisted susceptibility test (FAST), MICFAST and S/NS, Klebsiella isolates
Format: cell-based, Klebsiella pneumoniae, Klebsiella oxytoca
Description: A 1 mL aliquot of bacterial suspension was centrifuged, washed and resuspended in 1 mL filtered Hank's Buffered Salt Solution (HBSS; comprising about 0.137 M NaCl, about 5.4 mM KCl, about 0.25 mM Na2HPO4, about 0.1 g Glucose, about 0.44 mM KH2PO4, 1.3 mM CaCl2), 1.0 mM MgSO4, about 1.3 mM CaCl2), 1.0 mM MgSO4, and about 4.2 mM NaHCO3) and diluted in series (e.g., in a 1:10 serial dilution) to a final 1:1000 dilution.
One μL (microliter) of SYTO 9 stain (e.g., ThermoFisher Scientific) working stock solution was added to the final dilution at a final concentration of 5 μM and incubated for 5 minutes before counting bacterial events by acoustic flow cytometer (AFC) (Attune, ThermoFisher, Eugene, Oreg., USA), which was used to prepare a standardised inoculum density for susceptibility testing.
An aliquot of bacterial suspension was added to 50 mL centrifuge tubes (Corning, N.Y.) containing 9 mL of pre-warmed (37° C.) filtered MHB to produce a final density of 5×10^5-1×10^6 bacteria per mL. This suspension was incubated at 37° C. with shaking at 100 RPM for 30 minutes to obtain an actively dividing culture. An aliquot of antibiotic working solution from the previously described dilution series (appropriate to the concentration tested) was then added to each tube before a further 30-minute incubation with shaking, during which time a microbroth dilution (MBD) plate was prepared for overnight incubation at 37° C. as previously described in Clinical and Laboratory Standards Institute (2015) Performance Standards for Antimicrobial Susceptibility Testing: Informational Supplement. CLSI document M100-S25. Clinical and Laboratory Standards Institute, 950, West Valley Road, Suite 2500, Wayne, Pa., 19087, USA.
One millilitre of bacterial suspension from each antibiotic concentration was harvested by centrifugation at 7800×g for 5 minutes, washed and diluted 1:10 in filtered HBSS in a light-impermeable microcentrifuge tube, then stained with SYTO 9 stain at a final concentration of 5 μM, and incubated for 5 min before AFC sampling. Hoechst 33342 dye (NucBlue, Thermo Fisher Scientific, Eugene, Oreg., USA) and a SYTO 9/propidium iodide (PI) combination (Thermo Fisher Scientific) were used in a series of replicate experiments.
The acoustic flow cytometer employed was Attune acoustic flow cytometer (Thermo Fisher Scientific), having installed therein a 488 nm blue laser with a 530/30 nm filter on the photomultiplier tube for measuring fluorescence of cells assayed. Alternatively, the Attune NxT acoustic flow cytometer (Thermo Fisher Scientific) can be employed. AFC was calibrated at the beginning of each acquisition session using fluorescently labelled size calibration beads, in accordance with the manufacturer's instructions (ThermoFisher Scientific). The AFC settings were as follows: Forward Scatter (FSC) voltage 3100, FSC threshold 4×1000 AND, blue laser 1 (BL1—530/30 nm) voltage 1900, BL1 threshold 1×1000 AND, high sensitivity, flow rate 25 μL/minute, and an acquisition volume of 125 μL. Acquisition was halted after either collection of 20,000 events across all gates, or after 3 minutes, with each sample acquired in technical triplicate.
Collected data was exported in the FCS 3.0 file format and analysed in Flow v10.0 (FlowJo LLC, Ashland, Oreg., USA) by a single user, blinded to the MIC results by BMD (MICBMD).
Subsequent to quantitative MICFAST determination, the acoustic flow cytometer data were re-analysed in silico to produce a limited sub-set for qualitative susceptibility determination. The six antibiotic dilutions (0 mg/L, 0.25 mg/L, 1 mg/L, 2 mg/L, 4 mg/L and 16 mg/L) most relevant to qualitative susceptibility assessment were used. In silico analysis was restricted to the first technical triplicate of each recorded sample. Gating strategies remained consistent, with the addition of a gate restricting analysis to only those events recorded in the first 60 seconds of acquisition.

[1] = K. pneumoniae isolate 18397, biological replicates
[2] = K. pneumoniae isolate 43292, biological replicates
[3] = K. pneumoniae isolate 43358, biological replicates
[4] = K. pneumoniae isolate 44271, biological replicates
[5] = K. pneumoniae isolate ATCC 700603, biological replicates
[6] = K. pneumoniae isolate ATCC BAA1705, biological replicates
[7] = K. pneumoniae isolate K1, biological replicates
[8] = K. pneumoniae isolate K14, biological replicates
[9] = K. pneumoniae isolate KS11, biological replicates

C[C@@H](O)[C@H]1C(=O)N2C(C(=O)O)=C(S[C@@H]3CN[C@H](C(=O)N(C)C)C3)[C@H](C)[C@H]12 [meropenem]
MICFAST (K. pneumoniae ATCC 700603 (carbapenem susceptible control), limited clinical screen concentrations): ≤0.25 | MICFAST (K. pneumoniae ATCC BAA1705 (carbapenem resistant control), limited clinical screen concentrations): >16 | FAST S/NS [1]: S (S: MIC ≤2 mg/L) | MICFAST [1]: ≤0.25 mg/L | FAST S/NS [2]: S (S: MIC ≤2 mg/L) | MICFAST [2]: ≤0.25 mg/L | FAST S/NS [3]: S (S: MIC ≤2 mg/L) | MICFAST [3]: ≤0.25 mg/L | FAST S/NS [4]: S (S: MIC ≤2 mg/L) | MICFAST [4]: 0.5 mg/L | FAST S/NS [5]: S (S: MIC ≤2 mg/L) | MICFAST [5]: ≤0.25 mg/L | FAST S/NS [6]: NS (NS: MIC >2 mg/L) | MICFAST [6]: 8 mg/L | FAST S/NS [7]: NS (NS: MIC >2 mg/L) | MICFAST [7]: 64 mg/L (2×) and 32 mg/L | FAST S/NS [8]: NS (NS: MIC >2 mg/L) | MICFAST [8]: 256 mg/L | MICFAST (K. pneumoniae isolate K16 (IMP-4), rough colony variant): 64 mg/L | MICFAST (K. pneumoniae isolate K16 (IMP-4), smooth colony variant): 2 mg/L | MIC (K. pneumoniae isolate K16, subculture of Day 1 meropenem-exposed culture, read-out: MIC by FAST on Day 2): 4 µg/mL | MICFAST (K. pneumoniae isolate KS1, biological replicates): 4 mg/L and 1 mg/L and 2 mg/L | FAST S/NS [9]: S (S: MIC ≤2 mg/L) | MICFAST [9]: 1 mg/L (2×) and 2 mg/L | MIC (K. pneumoniae susceptible type strain ATCC 700603, read-out: isolate's MIC (new contouring focus formed, FIG. 3A)): 0.25 µg/mL | susceptibility-associated signature by AFC bi-axial plot (FIG. 3B) (highly resistant clinical K. pneumoniae strain K8, clinically relevant meropenem concentrations): absence of susceptibility-associated signature | FAST S/NS (isolate 194, Sweden, VIM): NS (NS = MIC >2 mg/L) | MICFAST (isolate 194, Sweden, VIM): 16 mg/L | FAST S/NS (isolate 374, Sweden, VIM): NS (NS = MIC >2 mg/L) | MICFAST (isolate 374, Sweden, VIM): 32 mg/L | FAST S/NS (isolate 3354, Australia): S (S = MIC ≤2 mg/L) | MICFAST (isolate 3354, Australia): 0.5 mg/L | FAST S/NS (isolate 10924, Sweden, KPC): S (S = MIC ≤2 mg/L) | MICFAST (isolate 10924, Sweden, KPC): 0.5 mg/L | FAST S/NS (isolate 18397, Australia): S (S = MIC ≤2 mg/L) | MICFAST (isolate 18397, Australia): ≤0.25 mg/L | FAST S/NS (isolate 43288, Australia): S (S = MIC ≤2 mg/L) | MICFAST (isolate 43288, Australia): ≤0.25 mg/L | FAST S/NS (isolate 43292, Australia): S (S = MIC ≤2 mg/L) | MICFAST (isolate 43292, Australia): ≤0.25 mg/L | FAST S/NS (isolate 43358, Australia): S (S = MIC ≤2 mg/L) | MICFAST (isolate 43358, Australia): ≤0.25 mg/L | FAST S/NS (isolate 43854, Australia): S (S = MIC ≤2 mg/L) | MICFAST (isolate 43854, Australia): ≤0.25 mg/L | FAST S/NS (isolate 44271, Australia): S (S = MIC ≤2 mg/L) | MICFAST (isolate 44271, Australia): 0.5 mg/L | FAST S/NS (isolate 51575, Sweden, ESBL): S (S = MIC ≤2 mg/L) | MICFAST (isolate 51575, Sweden, ESBL): ≤0.25 mg/L | FAST S/NS (isolate 70708, Sweden, KPC): NS (NS = MIC >2 mg/L) | MICFAST (isolate 70708, Sweden, KPC): 32 mg/L | FAST S/NS (isolate 71076, Sweden, KPC): NS (NS = MIC >2 mg/L) | MICFAST (isolate 71076, Sweden, KPC): 32 mg/L | FAST S/NS (isolate 200822, Sweden, KPC): NS (NS = MIC >2 mg/L) | MICFAST (isolate 200822, Sweden, KPC): 8 mg/L | FAST S/NS (isolate 270902, England): S (S = MIC ≤2 mg/L) | MICFAST (isolate 270902, England): ≤0.25 mg/L | FAST S/NS (isolate 500638, Sweden, pAmpC): S (S = MIC ≤2 mg/L) | MICFAST (isolate 500638, Sweden, pAmpC): 2 mg/L | FAST S/NS (isolate 515870, Sweden, ESBL): S (S = MIC ≤2 mg/L) | MICFAST (isolate 515870, Sweden, ESBL): ≤0.25 mg/L
